This note sets out measurements from patent US20230355598A1, “PYRROLIDINE COMPOUNDS TO TREAT XERODERMA PIGMENTOSUM” (Clinuvel (UK) Ltd., priority 2020, published 2023).

For this assay, the system named is Melanocytes. Briefly: Measurement of UV-induced apoptosis by Annexin Va staining. It counts as cell-based. The note with it: melanocytes in medium lacking BPE; treated 4 days prior to and 24 h after UV dose 105 mJ/cm^2; vs control.

Procedure: Melanocytes were treated with the different concentrations of the pyrrolidine compound for 4 days prior to, and 24 h after exposure to a UV dose (105 mJ/cm^2), then stained for Annexin Va staining. The data were collected as percent increase above control, with triplicate dishes included in each group. Effect of the pyrrolidine compound vs control on the UV-induced apoptosis were determined in melanocyte strains. Floating as well as attached cells were harvested and stained for Annexin V, and analyzed by flow cytometry.

In the case of `COC[C@H]1CN(C(=O)[C@]2(F)CN(C3CCCC3)C[C@H]2c2ccc(OC)cc2)C[C@@H]1c1ccc(C(F)(F)F)cc1N1CCC(C(=O)O)CC1` [Dersimelagon, 1-{2-[(3S,4R)-1-{[(3R,4R)-1-cyclopentyl-3-fluoro-4-(4-methoxyphenyl)pyrrolidin-3-yl]carbonyl}-4-(methoxymethyl)pyrrolidin-3-yl]-5-(trifluoromethyl)phenyl}piperidine-4-carboxylic acid], the “Effect on UV-induced apoptosis (Annexin V staining, flow cytometry)” value was “beneficial anti-apoptotic effects”.
